Series [1] can be described thus: Equilibrium aqueous solubility of the compound at pH 2. Format: physicochemical.
Series [2] can be described thus: Equilibrium aqueous solubility of the compound at pH 7. Format: physicochemical.
Series [3] can be described thus: Oral bioavailability in rat at 5 mg/kg. Particulars: in vivo.
The nature of series [4]: Half life in rat at 1 mg/kg, iv. In kind it is ADME, organism-based. As to conditions: in vivo.
A short description of series [5]: Cmax in rat at 5 mg/kg, po. Format: ADME, organism-based. The arrangement: dose 5 mg/kg, route oral. Particulars: in vivo.
The nature of series [6]: Clearance in rat at 1 mg/kg, iv. Format: ADME, organism-based. As to conditions: in vivo.
Series [7] in a line: Volume of distribution at steady state in rat at 1 mg/kg, iv. As to conditions: in vivo, read-out: Vdss. Format: ADME, organism-based.
A short description of series [8]: Half life in rat at 5 mg/kg, po. In kind it is ADME, organism-based. Particulars: in vivo.
The nature of series [9]: in vitro. As to conditions: human, liver microsomes.
Description: Extraction ratio in human liver microsomes
Series [10] addresses T1, Nuclear receptor ROR-gamma (Homo sapiens, UniProt P51449).
T1 sequence (P51449 whole entry): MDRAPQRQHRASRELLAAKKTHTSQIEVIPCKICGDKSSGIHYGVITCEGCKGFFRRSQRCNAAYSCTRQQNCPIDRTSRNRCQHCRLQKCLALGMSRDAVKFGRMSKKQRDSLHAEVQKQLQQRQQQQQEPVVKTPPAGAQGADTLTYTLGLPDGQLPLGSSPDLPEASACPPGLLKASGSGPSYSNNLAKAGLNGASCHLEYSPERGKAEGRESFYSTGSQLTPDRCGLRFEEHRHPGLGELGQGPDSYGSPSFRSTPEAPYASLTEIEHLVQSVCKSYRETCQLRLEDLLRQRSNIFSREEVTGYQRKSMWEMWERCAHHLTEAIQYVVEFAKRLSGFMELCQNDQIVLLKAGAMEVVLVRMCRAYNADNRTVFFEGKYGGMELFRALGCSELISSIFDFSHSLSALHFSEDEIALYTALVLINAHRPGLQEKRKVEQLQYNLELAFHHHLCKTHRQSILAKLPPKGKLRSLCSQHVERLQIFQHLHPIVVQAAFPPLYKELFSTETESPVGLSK

Series [11] is described as follows: in vitro. Particulars: rat, liver microsomes. For orientation: Liver microsomes are vesicles of endoplasmic reticulum, rich in cytochrome P450 enzymes.
Description: Extraction ratio in rat liver microsomes
In series [12] the target is T2, Nuclear receptor ROR-gamma (Homo sapiens) (UniProt P51449).
T2 sequence (whole entry): T1 sequence (P51449 whole entry)
The series can be described thus: Inverse agonist activity at GAL4-DNA binding domain-fused human full length RORgammat expressed in pGL4.31 transfected HEK293T cells assessed as inhibition of RORGgammat driven transcriptional activity at 2 uM after 24 hrs by luciferase reporter gene assay relative to control. In kind it is cell-based. A general note: In a reporter assay the amount or activity of a reporter protein is the signal.

Series [13] concerns the target T2, Nuclear receptor ROR-gamma (Homo sapiens). Nature of the series: Inverse agonist activity at GAL4-DNA binding domain-fused human RORgammat LBD expressed in pGL4.31 transfected HEK293T cells assessed as inhibition of RORGgammat driven transcriptional activity at 1 uM after 24 hrs by dual-luciferase reporter gene assay relative to control. Format: cell-based.
The target is the same in series [14]. The series can be described thus: Inverse agonist activity at GAL4-DNA binding domain-fused human full length RORgammat expressed in pGL4.31 transfected HEK293T cells assessed as inhibition of RORGgammat driven transcriptional activity at 3 uM after 24 hrs by dual-luciferase reporter gene assay relative to control. In kind it is cell-based.

Values after ≈ are worked out from the molar mass of the structure shown.

For the compound `COc1nc2ccc(C(O)(c3ccnc(C(F)(F)F)c3)c3cncn3C)cc2c(Cl)c1CN1CCC(C(F)(F)F)CC1` (stereo not given), the solubility (thermodynamic) is more than 400 µM in [1] and less than 1 µM in series [2].

For `COc1nc2ccc(C(O)(c3cc(C)nc(C)c3)c3cnnn3C)cc2c(Cl)c1CN1CCC(C(F)(F)F)CC1` (stereo not given), the thermodynamic solubility is more than 400 µM in series [1] and less than 1 µM in series [2].

Turning to `COc1nc2ccc([C@@](O)(c3ccc(C(F)(F)F)nc3)c3cncn3C)cc2c(Cl)c1CN1CCC(C(F)(F)F)CC1`, the values for the thermodynamic solubility in series [1] and in [2] were more than 400 µM and less than 1 µM, respectively. For the same compound, the bioavailability in [3] is 77%. Moreover, the half-life in series [4] was 9.1 h; in [8], 8.5 h. The compound also came in with a Cmax in [5] of 553 ng/mL. Also, the clearance in series [6] was found to be 7.9 mL/min/kg. The Vd in [7] is 5.7 L/kg.

As for `COc1nc2ccc(C(O)(c3ccc(C)nc3C)c3cnnn3C)cc2c(Cl)c1CN1CC(C(F)(F)F)C1` (stereo not given), the figures for the solubility (thermodynamic) in series [1] and in series [2] were more than 400 µM and 8 µM (≈ 4.38 µg/mL), respectively.

On to `COc1nc2ccc(C(O)(c3ccc(C)nc3C)c3cnnn3C)cc2c(Cl)c1OCC1CC1` (stereo not given), for which the thermodynamic solubility in [1] was more than 400 µM; in [2] it was less than 1 µM.

Take `COc1nc2ccc(C(O)(c3cnnn3C)c3cnc(C)n3C)cc2c(Cl)c1CN1CCC(C(F)(F)F)CC1` (stereo not given): the values for the solubility (thermodynamic) in [1] and in series [2] were more than 400 µM and 31 µM (≈ 17.5 µg/mL), respectively.

Take `COc1nc2ccc(C(O)(c3cnc(C)n3C)C3CN(C(C)=O)C3)cc2c(Cl)c1CN1CCC(C(F)(F)F)CC1` (stereo not given): the thermodynamic solubility in series [1] and in series [2] was more than 400 µM in each case.

In the case of `COc1nc2ccc(C(O)(c3ccc(C)nc3C)c3cnnn3C)cc2c(Cl)c1CC1CCS(=O)(=O)CC1` (stereo not given), the thermodynamic solubility in series [1] came out at 387 µM (≈ 215 µg/mL); in series [2], 13 µM (≈ 7.23 µg/mL). Further, the hepatic extraction ratio in series [9] was 0.9; in series [11], 0.7. 280 nM corresponded to half-maximal inhibition in series [10] (IC50).

Regarding `COc1nc2ccc(C(O)(c3ccc(C)nc3C)c3cnnn3C)cc2c(Cl)c1CN1CCC(F)CC1` (stereo not given), the thermodynamic solubility was more than 400 µM in series [1] and 100 µM (≈ 52.5 µg/mL) in series [2].

In the case of `COc1nc2ccc(C(O)(c3cnc(C)n3C)C3CCOCC3)cc2c(Cl)c1CN1CCC(C(F)(F)F)CC1` (stereo not given), the solubility (thermodynamic) in [1] is more than 400 µM; in series [2], 283 µM (≈ 160 µg/mL).

Consider `COc1nc2ccc(C(O)(c3ccc(C)nc3C)c3cnnn3C)cc2c(Cl)c1CC1CCC(F)(F)CC1` (stereo not given), for which the results for the thermodynamic solubility in series [1] and in series [2] were more than 400 µM and less than 1 µM, respectively.

Consider `COc1nc2ccc(C(O)(c3ccc(C(F)(F)F)nc3)C3CN(C(C)=O)C3)cc2c(Cl)c1CN1CCC(C(F)(F)F)CC1` (stereo not given), for which the thermodynamic solubility in [1] is more than 400 µM; in [2] it was less than 4 µM. Besides, the inhibition in series [12] came out at 94%.

For `COc1nc2ccc(C(O)(c3ccc(C)nc3C)c3cnnn3C)cc2c(Cl)c1CC1CC1` (stereo not given), the thermodynamic solubility is more than 400 µM in series [1] and less than 1 µM in series [2].

In the case of `COc1nc2ccc(C(O)(c3ccc(C)nc3C)c3cnnn3C)cc2c(Cl)c1CN1CCC(F)(F)CC1` (stereo not given), the results for the solubility (thermodynamic) in [1] and in series [2] were more than 400 µM and less than 4 µM, respectively.

As for `COc1nc2ccc(C(O)(c3ccc(C)nc3C)c3cnnn3C)cc2c(Cl)c1CC(C)C` (stereo not given), the solubility (thermodynamic) is more than 400 µM in series [1] and less than 1 µM in series [2].

`COc1nc2ccc(C(O)(c3ccc(C)nc3C)c3cnnn3C)cc2c(Cl)c1CN1CCC(C(F)(F)F)CC1` (stereo not given): the solubility (thermodynamic) in series [1] was more than 400 µM; in [2] it was less than 1 µM.

For `COc1nc2ccc(C(O)(c3ccnc(C(F)(F)F)c3)c3cnnn3C)cc2c(Cl)c1CN1CCC(C(F)(F)F)CC1` (stereo not given), the results for the thermodynamic solubility in series [1] and in series [2] were more than 400 µM and less than 4 µM, respectively. Further, the inhibition in series [12] came out at 100%.

As to `COc1nc2ccc(C(O)(c3ccc(C)nc3C)c3cnnn3C)cc2c(Cl)c1Cc1ccc(C(F)(F)F)cc1` (stereo not given), the solubility (thermodynamic) in [1] was 202 µM (≈ 115 µg/mL); in series [2] it was less than 1 µM. For the same compound, the inhibition in series [13] is 100%.

On to `COc1nc2ccc(C(O)(c3ccc(C)nc3C)c3cnnn3C)cc2c(Cl)c1CN1CCC(n2cccn2)CC1` (stereo not given), for which the solubility (thermodynamic) in [1] was more than 400 µM; in series [2], 30 µM (≈ 17.2 µg/mL).

`COc1nc2ccc(C(O)(c3ccc(Cl)cc3)c3cncn3C)cc2c(Cl)c1Cc1ccc(-n2cccn2)cc1` (stereo not given): the thermodynamic solubility in [1] and in series [2] was less than 1 µM each time. The compound further displayed a bioavailability in [3] of 42%. In addition, the half-life in series [4] and in series [8] was 5.6 h each time. The compound further yielded a peak concentration (Cmax) in [5] of 262 ng/mL. The compound also gave a clearance in series [6] of 11.5 mL/min/kg. In addition, the Vd in [7] stood at 4.3 L/kg.

As for `COc1nc2ccc(C(O)(c3ccc(C)nc3C)c3cnnn3C)cc2c(Cl)c1C` (stereo not given), the thermodynamic solubility in series [1] is more than 400 µM; in series [2], less than 4 µM.

For the compound `COc1nc2ccc(C(O)(c3ccc(C)nc3C)c3cnnn3C)cc2c(Cl)c1C1CCCC1` (stereo not given), the thermodynamic solubility is 273 µM (≈ 130 µg/mL) in series [1] and less than 4 µM in [2].

`COc1nc2ccc([C@](O)(c3ccnc(C(F)(F)F)c3)c3cnc(C)n3C)cc2c(Cl)c1CN1CCC(C(F)(F)F)CC1`: the thermodynamic solubility in series [1] is more than 400 µM; in series [2], less than 4 µM. The inhibition in [12] came out at 101%.

As for `COc1nc2ccc(C(O)(c3ccc(C)nc3C)c3cnnn3C)cc2c(Cl)c1C(=O)N1CCC(C(F)(F)F)CC1` (stereo not given), in series [14], the inhibition was 66%. The thermodynamic solubility in series [1] was more than 400 µM; in series [2], 60 µM (≈ 35.3 µg/mL). The hepatic extraction ratio in series [9] and in series [11] was 0.8 throughout. In addition, in series [10], the half-maximal inhibitory concentration (IC50) is 386 nM.

Consider `COc1nc2ccc(C(O)(c3ccc(C)nc3C)c3cnnn3C)cc2c(Cl)c1OC(C)C` (stereo not given), for which the thermodynamic solubility in series [1] is more than 400 µM; in [2], less than 1 µM.

For the compound `COc1nc2ccc(C(O)(c3ccc(C)nc3C)c3cnnn3C)cc2c(Cl)c1CC(F)(F)F` (stereo not given), the figures for the solubility (thermodynamic) in series [1] and in series [2] were 395 µM (≈ 194 µg/mL) and less than 4 µM, respectively.

For `COc1nc2ccc(C(O)(c3cnc(C)n3C)c3cnc(C)n3C)cc2c(Cl)c1CN1CCC(C(F)(F)F)CC1`, the solubility (thermodynamic) in [1] was more than 400 µM; in series [2] it was 4 to 7 µM (≈ 2.31 to 4.04 µg/mL).

Regarding `COc1nc2ccc(C(O)(c3ccc(C)nc3C)c3cnnn3C)cc2c(Cl)c1OCc1ncccn1` (stereo not given), the thermodynamic solubility in series [1] is more than 400 µM; in series [2], 336 µM (≈ 174 µg/mL).

With `COc1nc2ccc(C(O)(c3ccc(C)nc3C)c3cnnn3C)cc2c(Cl)c1OCc1nccs1` (stereo not given), the thermodynamic solubility is more than 400 µM in [1] and less than 4 µM in series [2].

For `COc1nc2ccc(C(O)(c3ccc(C)nc3C)c3cnnn3C)cc2c(Cl)c1OC1CCOCC1` (stereo not given), the values for the solubility (thermodynamic) in [1] and in series [2] were more than 400 µM and 41 µM (≈ 20.9 µg/mL), respectively.

Take `COc1nc2ccc(C(O)(c3ccc(C)nc3C)c3cnnn3C)cc2c(Cl)c1OCC1CC1(F)F` (stereo not given): the values for the thermodynamic solubility in [1] and in series [2] were 371 µM (≈ 191 µg/mL) and less than 4 µM, respectively.

For orientation: thermodynamic solubility means the concentration in solution at equilibrium with solid. A word on the bioavailability: it is the share of a dose that reaches the circulation, judged against a reference dose that is usually intravenous. A higher bioavailability goes with much systemic uptake. As usually defined, the half-life is the time needed for the level to fall by half in the phase considered. By Cmax is commonly meant the highest concentration seen after dosing. Usually clearance stands for a measure of how efficiently the substance is removed, as volume per time. High values mean efficient removal, low ones inefficient removal. By IC50 is commonly meant the concentration needed to halve the response being measured. Higher therefore signals lower potency. One may read the inhibition as the change of the read-out against control, counted positive when it falls.

The record behind these values is ChEMBL document CHEMBL4340540, “3-Substituted Quinolines as RORγt Inverse Agonists” (Bioorg Med Chem Lett, 2019).
